Measurements as given in the NIST ThermoML archive (doi:10.1016/j.fluid.2006.07.015).
± gives the expanded uncertainty stated by the source.

Test: activity coefficient (dimensionless); of the first substance listed, at infinite dilution; xn = mol fraction of the nth substance listed
Settings: 101 kPa, Liquid, Chromatography, x1 = 0

Structure (SMILES)	activity coefficient (373.15 K)	activity coefficient (388.15 K)	activity coefficient (403.15 K)	activity coefficient (418.15 K)	activity coefficient (433.15 K)
C[C@H]1CC[C@H](C)CC1 [trans-1,4-dimethylcyclohexane] + CCCCCCCCCCCCCCCCCCC(CCCCCCCCCCCCCCCCCC)CCCCC(CCCCCCCCCCCCCCCCCC)CCCCCCCCCCCCCCCCCC	0.288 ± 0.036	0.295 ± 0.036	0.297 ± 0.036	0.298 ± 0.036	0.299 ± 0.036
CCC(C)CC(C)C (stereo not given) [2,4-dimethylhexane] + CCCCCCCCCCCCCCCCCCC(CCCCCCCCCCCCCCCCCC)CCCCC(CCCCCCCCCCCCCCCCCC)CCCCCCCCCCCCCCCCCC	0.394 ± 0.034	0.396 ± 0.034	0.396 ± 0.034	0.398 ± 0.034	0.405 ± 0.034
C#CCCCCCCCC [1-decyne] + CCCCCCCCCCCCCCCCCCC(CCCCCCCCCCCCCCCCCC)CCCCC(CCCCCCCCCCCCCCCCCC)CCCCCCCCCCCCCCCCCC	0.442 ± 0.033	0.446 ± 0.033	0.446 ± 0.033	0.446 ± 0.033	0.446 ± 0.033
C#CCCCCCC [1-octyne] + CCCCCCCCCCCCCCCCCCC(CCCCCCCCCCCCCCCCCC)CCCCC(CCCCCCCCCCCCCCCCCC)CCCCCCCCCCCCCCCCCC	0.428 ± 0.034	0.424 ± 0.034	0.417 ± 0.034	0.412 ± 0.034	0.411 ± 0.034
CC(C)CC(C)C [2,4-dimethylpentane] + CCCCCCCCCCCCCCCCCCC(CCCCCCCCCCCCCCCCCC)CCCCC(CCCCCCCCCCCCCCCCCC)CCCCCCCCCCCCCCCCCC	0.391 ± 0.034	0.392 ± 0.034	0.394 ± 0.034	0.396 ± 0.034	0.4 ± 0.034
CC(C)CC(C)(C)C [2,2,4-trimethylpentane] + CCCCCCCCCCCCCCCCCCC(CCCCCCCCCCCCCCCCCC)CCCCC(CCCCCCCCCCCCCCCCCC)CCCCCCCCCCCCCCCCCC	0.397 ± 0.034	0.401 ± 0.034	0.401 ± 0.034	0.405 ± 0.034	0.406 ± 0.034
CC1CCCCC1 [methylcyclohexane] + CCCCCCCCCCCCCCCCCCC(CCCCCCCCCCCCCCCCCC)CCCCC(CCCCCCCCCCCCCCCCCC)CCCCCCCCCCCCCCCCCC	0.267 ± 0.036	0.273 ± 0.036	0.273 ± 0.036	0.272 ± 0.036	0.275 ± 0.036
CCCCCCCCCCCCCC [tetradecane] + CCCCCCCCCCCCCCCCCCC(CCCCCCCCCCCCCCCCCC)CCCCC(CCCCCCCCCCCCCCCCCC)CCCCCCCCCCCCCCCCCC	0.492 ± 0.033	0.493 ± 0.033	0.494 ± 0.033	0.495 ± 0.033	0.495 ± 0.033
CCCc1ccccc1 [propylbenzene] + CCCCCCCCCCCCCCCCCCC(CCCCCCCCCCCCCCCCCC)CCCCC(CCCCCCCCCCCCCCCCCC)CCCCCCCCCCCCCCCCCC	0.336 ± 0.035	0.339 ± 0.035	0.336 ± 0.035	0.331 ± 0.035	0.33 ± 0.035
CCCCCCCCCC [decane] + CCCCCCCCCCCCCCCCCCC(CCCCCCCCCCCCCCCCCC)CCCCC(CCCCCCCCCCCCCCCCCC)CCCCCCCCCCCCCCCCCC	0.418 ± 0.034	0.42 ± 0.034	0.421 ± 0.034	0.423 ± 0.034	0.425 ± 0.034
C=CCCCC [hex-1-ene] + CCCCCCCCCCCCCCCCCCC(CCCCCCCCCCCCCCCCCC)CCCCC(CCCCCCCCCCCCCCCCCC)CCCCCCCCCCCCCCCCCC	0.354 ± 0.035	0.355 ± 0.035	0.356 ± 0.035	0.357 ± 0.035	0.359 ± 0.035
C=CCCCCCC [oct-1-ene] + CCCCCCCCCCCCCCCCCCC(CCCCCCCCCCCCCCCCCC)CCCCC(CCCCCCCCCCCCCCCCCC)CCCCCCCCCCCCCCCCCC	0.374 ± 0.034	0.374 ± 0.034	0.374 ± 0.034	0.375 ± 0.034	0.377 ± 0.034
CCCCCCc1ccccc1 [hexylbenzene] + CCCCCCCCCCCCCCCCCCC(CCCCCCCCCCCCCCCCCC)CCCCC(CCCCCCCCCCCCCCCCCC)CCCCCCCCCCCCCCCCCC	0.397 ± 0.034	0.405 ± 0.034	0.401 ± 0.034	0.404 ± 0.034	0.401 ± 0.034
C1CCCCCCC1 [cyclooctane] + CCCCCCCCCCCCCCCCCCC(CCCCCCCCCCCCCCCCCC)CCCCC(CCCCCCCCCCCCCCCCCC)CCCCCCCCCCCCCCCCCC	0.258 ± 0.036	0.264 ± 0.036	0.265 ± 0.036	0.262 ± 0.036	0.264 ± 0.036
C=CCCCCCCC [1-nonene] + CCCCCCCCCCCCCCCCCCC(CCCCCCCCCCCCCCCCCC)CCCCC(CCCCCCCCCCCCCCCCCC)CCCCCCCCCCCCCCCCCC	0.392 ± 0.034	0.394 ± 0.034	0.395 ± 0.034	0.396 ± 0.034	0.398 ± 0.034
CCCCCc1ccccc1 [pentylbenzene] + CCCCCCCCCCCCCCCCCCC(CCCCCCCCCCCCCCCCCC)CCCCC(CCCCCCCCCCCCCCCCCC)CCCCCCCCCCCCCCCCCC	0.378 ± 0.034	0.385 ± 0.034	0.381 ± 0.034	0.38 ± 0.034	0.376 ± 0.034
CCCCCC [hexane] + CCCCCCCCCCCCCCCCCCC(CCCCCCCCCCCCCCCCCC)CCCCC(CCCCCCCCCCCCCCCCCC)CCCCCCCCCCCCCCCCCC	0.344 ± 0.035	0.346 ± 0.035	0.348 ± 0.035	0.351 ± 0.035	0.355 ± 0.035
CCC#CCC [3-hexyne] + CCCCCCCCCCCCCCCCCCC(CCCCCCCCCCCCCCCCCC)CCCCC(CCCCCCCCCCCCCCCCCC)CCCCCCCCCCCCCCCCCC	0.404 ± 0.034	0.406 ± 0.034	0.406 ± 0.034	0.417 ± 0.034	0.419 ± 0.034
C[C@@H]1CCCC[C@H]1C [trans-1,2-dimethylcyclohexane] + CCCCCCCCCCCCCCCCCCC(CCCCCCCCCCCCCCCCCC)CCCCC(CCCCCCCCCCCCCCCCCC)CCCCCCCCCCCCCCCCCC	0.28 ± 0.036	0.287 ± 0.036	0.29 ± 0.036	0.288 ± 0.036	0.295 ± 0.036
C[C@H]1CC[C@@H](C)CC1 [cis-1,4-dimethylcyclohexane] + CCCCCCCCCCCCCCCCCCC(CCCCCCCCCCCCCCCCCC)CCCCC(CCCCCCCCCCCCCCCCCC)CCCCCCCCCCCCCCCCCC	0.287 ± 0.036	0.294 ± 0.036	0.296 ± 0.036	0.296 ± 0.036	0.3 ± 0.036
C#CCCCC [1-hexyne] + CCCCCCCCCCCCCCCCCCC(CCCCCCCCCCCCCCCCCC)CCCCC(CCCCCCCCCCCCCCCCCC)CCCCCCCCCCCCCCCCCC	0.39 ± 0.034	0.378 ± 0.034	0.37 ± 0.034	0.364 ± 0.035	0.36 ± 0.035
C=CCCCCCCCCCCC [1-tridecene] + CCCCCCCCCCCCCCCCCCC(CCCCCCCCCCCCCCCCCC)CCCCC(CCCCCCCCCCCCCCCCCC)CCCCCCCCCCCCCCCCCC	0.467 ± 0.033	0.466 ± 0.033	0.466 ± 0.033	0.467 ± 0.033	0.468 ± 0.033
CC(C)C(C)C(C)C [2,3,4-trimethylpentane] + CCCCCCCCCCCCCCCCCCC(CCCCCCCCCCCCCCCCCC)CCCCC(CCCCCCCCCCCCCCCCCC)CCCCCCCCCCCCCCCCCC	0.353 ± 0.035	0.356 ± 0.035	0.358 ± 0.035	0.36 ± 0.035	0.362 ± 0.035
C1CCCCCC1 [cycloheptane] + CCCCCCCCCCCCCCCCCCC(CCCCCCCCCCCCCCCCCC)CCCCC(CCCCCCCCCCCCCCCCCC)CCCCCCCCCCCCCCCCCC	0.252 ± 0.036	0.257 ± 0.036	0.256 ± 0.036	0.253 ± 0.036	0.255 ± 0.036
C1CC[C@H]2CCCC[C@H]2C1 [cis-decahydronaphthalene] + CCCCCCCCCCCCCCCCCCC(CCCCCCCCCCCCCCCCCC)CCCCC(CCCCCCCCCCCCCCCCCC)CCCCCCCCCCCCCCCCCC	0.268 ± 0.036	0.278 ± 0.036	0.28 ± 0.036	0.275 ± 0.036	0.279 ± 0.036
CCCCCCCCCCC [undecane] + CCCCCCCCCCCCCCCCCCC(CCCCCCCCCCCCCCCCCC)CCCCC(CCCCCCCCCCCCCCCCCC)CCCCCCCCCCCCCCCCCC	0.436 ± 0.033	0.438 ± 0.033	0.44 ± 0.033	0.442 ± 0.033	0.444 ± 0.033
CCCCCCCCCCCC [dodecane] + CCCCCCCCCCCCCCCCCCC(CCCCCCCCCCCCCCCCCC)CCCCC(CCCCCCCCCCCCCCCCCC)CCCCCCCCCCCCCCCCCC	0.456 ± 0.033	0.457 ± 0.033	0.459 ± 0.033	0.46 ± 0.033	0.462 ± 0.033
C=CCCCCCCCCCCCC [1-tetradecene] + CCCCCCCCCCCCCCCCCCC(CCCCCCCCCCCCCCCCCC)CCCCC(CCCCCCCCCCCCCCCCCC)CCCCCCCCCCCCCCCCCC	0.475 ± 0.033	0.476 ± 0.033	0.475 ± 0.033	0.476 ± 0.033	0.475 ± 0.033
C=CCCCCCCCCCC [1-dodecene] + CCCCCCCCCCCCCCCCCCC(CCCCCCCCCCCCCCCCCC)CCCCC(CCCCCCCCCCCCCCCCCC)CCCCCCCCCCCCCCCCCC	0.447 ± 0.033	0.449 ± 0.033	0.453 ± 0.033	0.453 ± 0.033	0.455 ± 0.033
C1CC[C@H]2CCCC[C@@H]2C1 [trans-decahydronaphthalene] + CCCCCCCCCCCCCCCCCCC(CCCCCCCCCCCCCCCCCC)CCCCC(CCCCCCCCCCCCCCCCCC)CCCCCCCCCCCCCCCCCC	0.268 ± 0.036	0.279 ± 0.036	0.283 ± 0.036	0.28 ± 0.036	0.287 ± 0.036
